Legend:
MC38 colorectal tumor = assay: Efficacy in isotype MC38 colorectal tumor mice model; assay type: in vivo, C57BL/6 mice
Procedure: The inhibition effect of the compound of Example 4 on MC38 tumor growth was evaluated in MC38 mice model.
Experimental female C57BL/6 mice were purchased from Charles River Lab (U.S.A.). The mice weighed 20-25 gram, and were 7-9 weeks old when purchased. The mice (10 mice per cage) were maintained in a constant temperature of 23+1° C., and a humidity of 50-60%, and free access to food and water. The mice were treated and used in accordance with the Institutional Animal Care and Use Committee (IACUC approved guidelines). After the animals were purchased, the test was started after 7 days of adaptive feeding.
Female C57BL/6 mice (20-25 gram, 7-9 weeks old) were used in the experiment. In vivo antitumor activity of the compound of Example 4 administered alone or the compound of Example 4 administered in combination with anti-mouse PD-1 antibody was evaluated by detecting the growth of isotype MC38 colorectal tumor (Synta Pharmaceuticals) in inbred C57BL/6 mice. 500,000 (5×10^5) MC38 cells were implanted subcutaneously in the right abdomen of each mouse. After 5 days, when the tumor grew to 40-80 mm^3, the mice were grouped randomly. The compound of Example 4 (30 mg/kg) was administered twice a day for 21 consecutive days. During the treatment experiment in which the antibody was administered alone or in combination with the compound of Example 4, anti-mouse PD-1 (CD279) antibody (BioXcell) (5 mg/kg) was intraperitoneally injected (i.p.) to the mice bearing MC38 tumor fixedly on Day 5, 8, 11 and 14. The control group was administered with the vehicle CMC-Na drug formulation and the IgG2a isotype control antibody.
The tumor volume was measured with a caliper in three dimensions, and then calculated according to the following formula: tumor volume (mm^3)=l×w×h×0.5236, wherein 1 represents the length of the tumor, w represents the width of the tumor, and h represents the height of the tumor, in millimeters. Tumor growth inhibition rate TGI %=100×(TVcontrol−TVtumor)/(TVcontrol−TVinitial), wherein TVcontrol=the tumor volume of the control group; TVtumor=the tumor volume of the treatment group; and TVinitial=the initial tumor volume on Day 5.

[1] = Pharmacokinetics assay in mice after intragastrical administration; assay type: in vivo; conditions: female, C57, mouse, plasma, po, 2 mg/kg
Procedure: Mice were used as test animals. The drug concentration in plasma at different time points was determined by LC/MS/MS method after intragastrical administration of the compound of Example 4 to mice. The pharmacokinetic behavior of the compound of the present invention was studied and evaluated in mice. A group of nine C57 mice (female) were purchased from Shanghai Jiesijie Laboratory Animal Co., LTD, with Certificate No.: SCXK (Shanghai) 2013-0006. A certain amount of the test compound was weighed, and added with 5% by volume of DMSO, 5% by volume of tween 80 and 90% by volume of normal saline to prepare a 0.1 mg/mL colorless, clear and transparent solution. […] The samples were stored in heparinized tubes, and centrifuged for 10 minutes at 3500 rpm to separate the blood plasma. The plasma samples were stored at −20° C. The content of the test compound in the plasma of mice after intragastrical administration of the test compound at different concentrations was determined: 25 μL of mouse plasma at each time after administration was taken, added with 80 μL of the internal standard solution of camptothecin (100 ng/mL) and 200 μL of acetonitrile, vortex-mixed for 5 minutes, and centrifuged for 10 minutes (3600 rpm). 1 μL of the supernatant was taken from the plasma samples for LC/MS/MS analysis.

IL-17A = IL-17A enzyme-linked immune quantitative assay in cytostim-activated human PBMC; assay type: cell-based; conditions: 72 h; IL-17A in supernatant of human PBMC, 3 days after drug treatment
Procedure: 1. Human peripheral blood mononuclear cells (PBMC) (Zenbio)
5. Human IL-17 enzyme-linked immunosorbent kit (R&D System)
Frozen human peripheral blood mononuclear cells (PBMC) were rapidly resuscitated in pre-warmed lymphocyte culture medium, and centrifuged at 1000 rpm for 10 min. The cell culture supernatant was removed. The cells were gently suspended in TexMACS medium and counted. The T cell activation reagent cytostim (10 μl/ml) was added in proportion to the cell suspension. Then, the cells were seeded in a 96-well cell culture plate at a density of 1×10^5 peripheral blood mononuclear cells/well. The test compounds were diluted in gradient with TexMACS medium, and added respectively to the test wells, with 2-3 parallel wells per group. A negative control well containing only cells without cytostim was provided to obtain the background reading. The cell culture plate was placed in a incubator at 5% carbon dioxide, 37° C. to incubate for 3 days. The cell culture supernatant was collected 3 days after drug treatment, and centrifuged to remove the suspension. Then, IL-17A in the supernatant was quantified with IL-17A enzyme-linked immunosorbent kit. EC50 values of the test compounds were calculated with GraphPad Prism 6.0.

RORγ LBD = molecular target: T1, RORγ LBD (Homo sapiens, UniProt P51449); assay: LanthaScreen TR-FRET RORγ co-activation system, effect on in vitro activity of RORγ; assay type: biochemical; conditions: for EC50: TR-FRET RORγ co-activation, for agonist the value refers to EC50, read-out: EC50/IC50 a (nM): EC50 (agonist); for Type: agonist or inverse agonist of RORγ; for Emax: for agonist the value refers to Emax(%), read-out: Emax(%)/maximum inhibition rate b: Emax(%) (agonist)
T1 construct: RORγ LBD was diluted with the complete buffer D to a concentration of 1 ng/μL; GST; purchased AB Vector
T1 sequence (P51449 269-508 limits assumed): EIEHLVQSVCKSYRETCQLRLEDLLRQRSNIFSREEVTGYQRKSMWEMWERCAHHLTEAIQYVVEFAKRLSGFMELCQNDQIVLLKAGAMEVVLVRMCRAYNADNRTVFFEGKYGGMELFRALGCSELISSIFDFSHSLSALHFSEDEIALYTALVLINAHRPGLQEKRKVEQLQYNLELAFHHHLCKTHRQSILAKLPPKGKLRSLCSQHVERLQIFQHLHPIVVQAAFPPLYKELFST
Procedure: 1. LanthaScreen® TR-FRET RORγ co-activation system (Life Technologies)
A complete buffer D (complete TR-FRET Coregulator) (Life Technologies) was formulated first, containing a final concentration of 5 mM DTT. The final concentration of DMSO was 2%. The test compound was serially diluted to 2× final concentration in the complete buffer D containing 2% of DMSO, and the maximum dose was […]. The test compound was added to the test wells of a 384-well plate (PerkinElmer) in 10 μl/well. Two parallel control wells were set up for each test compound at the same concentration. 4×RORγ LBD (AB Vector) was formulated. RORγ LBD was diluted with the complete buffer D to a concentration of 1 ng/μL, and added to the test wells of 384-well plate in 5 μl/well. The negative control well was 5 μL of complete buffer D without RORγ LBD. A mixed solution comprising 0.6 μM of fluorescein-D22 (4×) and 8 nM of terbium(Tb)-labeled anti-GST antibody (4×) (Life Technologies) was formulated with the complete buffer D, and 5 μL of the mixed solution was added to the 384-well plate. The total reaction system was 20 μL. The 384-well plate was gently shaken on a shaker, and incubated at room temperature in the dark for 2-4 hours.
Fluorescence readings were determined with Tecan Infinite M1000. The logarithmic curve of the ratio of the emission wavelength of 520 nm/495 nm to the concentration of the compound was plotted by GraphPad Prism 6.0 software. EC50/IC50 value of the test compound was calculated.

[2] = 30 mg/kg in combination with anti-mouse PD-1 monoclonal antibody (5 mg/kg)

| EC50 (IL-17A) | EC50 (RORγ LBD) | Type (RORγ LBD) | Emax (RORγ LBD) | Compound | TGI (tumor growth inhibition rate) (MC38 colorectal tumor; 30 mg/kg administered alone, oral, twice a day for 21 days) | Effect of combined administration with PD-1 antibody (MC38 colorectal tumor; [2]) | TGI (tumor growth inhibition rate) (MC38 colorectal tumor; [2]) | Antitumor activity (MC38 colorectal tumor; administered alone) | Vd/F ([1]; read-out: Apparent distribution volume Vz/F) | AUC ([1]; read-out: Area under curve AUC) | CL/F ([1]; read-out: Clearance CLz/F) | half-life ([1]; read-out: Half-life T1/2 (converted)) | Cmax ([1]; read-out: Plasma concentration Cmax) | MRT ([1]; read-out: Residence time MRT) | Emax (IL-17A) |
| --- | --- | --- | --- | --- | --- | --- | --- | --- | --- | --- | --- | --- | --- | --- | --- |
| 25 nM | 13 nM | Agonist | 89% | O=C(N[C@@H](CO)c1ccc(S(=O)(=O)NC2CC2)cc1)c1ccc2c(c1)cc(Cc1ccc(Cl)cc1C(F)(F)F)n2CCF [Example 12, (R)-2-(4-Chloro-2-(trifluoromethyl)benzyl)-N-(1-(4-(N-cyclopropylsulfamoyl)phenyl)-2-hydroxyethyl)-1-(2-fluoroethyl)-1H-indole-5-carboxamide] | – | – | – | – | – | – | – | – | – | – | 71% |
| 27 nM | 69 nM | Agonist | 96% | O=C(N[C@@H](CO)c1ccc(S(=O)(=O)CC2CC2)cc1)c1ccc2c(c1)cc(Cc1ccc(Cl)cc1C(F)(F)F)n2CCF [Example 13, (R)-2-(4-Chloro-2-(trifluoromethyl)benzyl)-N-(1-(4-((cyclopropylmethyl)sulfonyl)phenyl)-2-hydroxyethyl)-1-(2-fluoroethyl)-1H-indole-5-carboxamide] | – | – | – | – | – | – | – | – | – | – | 65% |
| 8 nM | 18 nM | Agonist | 97% | CCS(=O)(=O)c1ccc([C@H](COC)NC(=O)c2ccc3c(c2)cc(Cc2ccc(Cl)cc2C(F)(F)F)n3CCF)cc1 [Example 16, (R)-2-(4-Chloro-2-(trifluoromethyl)benzyl)-N-(1-(4-(ethylsulfonyl)phenyl)-2-methoxyethyl)-1-(2-fluoroethyl)-1H-indole-5-carboxamide] | – | – | – | – | – | – | – | – | – | – | 99% |

More lines, now with the values behind:

| Compound | EC50 (IL-17A) | EC50 (RORγ LBD) | Type (RORγ LBD) | Emax (RORγ LBD) | TGI (tumor growth inhibition rate) (MC38 colorectal tumor; 30 mg/kg administered alone, oral, twice a day for 21 days) | Effect of combined administration with PD-1 antibody (MC38 colorectal tumor; [2]) | TGI (tumor growth inhibition rate) (MC38 colorectal tumor; [2]) | Antitumor activity (MC38 colorectal tumor; administered alone) | Vd/F ([1]; read-out: Apparent distribution volume Vz/F) | AUC ([1]; read-out: Area under curve AUC) | CL/F ([1]; read-out: Clearance CLz/F) | half-life ([1]; read-out: Half-life T1/2 (converted)) | Cmax ([1]; read-out: Plasma concentration Cmax) | MRT ([1]; read-out: Residence time MRT) | Emax (IL-17A) |
| --- | --- | --- | --- | --- | --- | --- | --- | --- | --- | --- | --- | --- | --- | --- | --- |
| CCS(=O)(=O)c1ccc([C@H](CO)NC(=O)c2ccc3c(c2)cc(Cc2ccc(Cl)cc2C(F)(F)F)n3CCF)cc1 [Example 4, (R)-2-(4-Chloro-2-(trifluoromethyl)benzyl)-N-(1-(4-(ethylsulfonyl)phenyl)-2-hydroxyethyl)-1-(2-fluoroethyl)-1H-indole-5-carboxamide] | 85 nM | – | – | – | 40% | synergistic effect | 63% | exhibits an antitumor activity | 0.637 L/kg | 50600 ng·h/mL | 0.66 mL/min/kg | 11.2 h | 3660 ng/mL | 15.5 h | 93% |
| O=C(N[C@@H](CO)c1ccc(S(=O)(=O)CC2CC2)cc1)c1ccc2c(c1)cc(Cc1ccc(F)cc1C(F)(F)F)n2CCF [Example 14, (R)—N-(1-(4-((Cyclopropylmethyl)sulfonyl)phenyl)-2-hydroxyethyl)-2-(4-fluoro-2-(trifluoromethyl)benzyl)-1-(2-fluoroethyl)-1H-indole-5-carboxamide] | 42 nM | 138 nM | Agonist | 99% | – | – | – | – | – | – | – | – | – | – | 99% |

— patent publication US20200131123A1, “INDOLE-FORMAMIDE DERIVATIVE, PREPARATION METHOD THEREFOR AND USE THEREOF IN MEDICINE” (Jiangsu Hengrui Medicine Co., Ltd., priority 2017, published 2020)
